Measurements: PMC11093748, “De novo identification of CD4^+ T cell epitopes” (Nature Methods, 2024)

Assays:
TCR3 [1] = experiment: I-Ag7 SABR-II HIP library screen, enrichment score; format: cell-based, mouse
Text: (§1) Given the predominance of HIP-reactive TCRs, we hypothesized that there may be other TCRs that respond to HIPs that were not encoded in our initial library configuration. While the initial I-Ag7 SABR-II library consisted of a number of HIPs, HIP formation is thought to be more widespread in pancreatic β-cells[52],[70]. Therefore, we sought to construct a defined, HIP-focused library to probe whether there were any undiscovered HIP-reactive TCRs that could be recognized by the clonally expanded TCR in our dataset. To test this, we utilized a published proteomic dataset, which predicted that several proteins that were highly expressed in secretory granules of β-cells may contribute to HIP formation. Using their predictions, we built a theoretical HIP library, in which all possible ‘left’ halves of the insulin C chain derived from natural cleavage products were fused to ‘right’ halves derived from secretory granule proteins (Fig. 5a). This 2,561-epitope library (12–25 amino acids per epitope) consisted of only HIPs and a small number of positive control epitopes (Supplementary Table 5). We screened the top three clonally expanded TCRs (TCR1, TCR2 and TCR3) against this library, as these TCRs had not been de-convoluted using the original library. […] To confirm that the HIP itself was important for the cognate interaction, we cloned single 14-mer epitopes into SABR-IIs consisting of seven amino acids of the left portion of the HIP and seven amino acids of the right portion of the HIP. In this way, no nine amino acids from either peptide sequence alone could occupy the binding pocket of I-Ag7, ensuring that TCR reactivity spanned the HIP junction. […] Of note, in all the epitopes that were tested, the ‘left’ half derived from insulin C was conserved, whereas the ‘right’ halves were derived from several other proteins (Fig. 5d). […] Moreover, the promiscuous binding of TCR3 to HIPs corroborates evidence from other NOD mouse-derived TCRs reacting to multiple HIPs[72].
To generate the I-Ag7 restricted SABR library, we combined all Immune Epitope Database epitopes with a published immunopeptidome generated by Wan et al.[51]. Sequences were filtered remove all post-translational modifications except deamidation and HIPs and trimmed between 9–25 amino acid lengths. For the insulin C HIP and HLA-DQ8 library, non-contiguous epitopes from Wiles et al.[66] as well as all Immune Epitope Database epitopes were combined to generate the epitope list. Epitope sequences were back-translated using the backtranslate_fast.py script.
For SABR library screens, 3 × 10^6 NFAT–GFP Jurkat cells expressing the SABR library were labeled with CellTrace Violet (BioLegend) according to the manufacturer’s protocol before incubation with 3 × 10^6 Jurkat cells expressing the TCR of interest. These mixtures were incubated in a six-well plate for 16–20 h. Cells were stained with anti-CD69-APC-Cy7 where indicated (BioLegend) and the top 1–2% of GFP^+CD69^+ cells were sorted for genomic DNA extraction, indexing and sequencing (see below). Multiplexed assays were scaled on a per-TCR basis (for example 3 × 10^6 for each of three TCRs against 9 × 10^6 library cells). For single SABR assays, unless otherwise defined, 5 × 10^5 SABR expressing NFAT–GFP Jurkat cells (or 5KC cells) were labeled with CellTrace Violet (BioLegend) according to the manufacturer’s protocol before incubation with 5 × 10^5 TCR-expressing Jurkat cells (or 5KC cells) in a round-bottom 96-well plate for 16–20 h. Cells were stained with anti-CD69-APC-Cy7 when indicated and acquired on the Attune NxT flow cytometer (Thermo Fisher Scientific). All flow analysis was performed using FlowJo (BD). For Daudi cell co-culture, 1 × 10^6 Jurkat cells expressing the TCR of interest were incubated with 1 × 10^6 Daudi cells expressing a SABR of interest for 3 days. On day 3, cells were labeled with anti-RT1B-PE and anti-Fas-APC-Cy7 before being acquired on the Attune NxT flow cytometer. […]

TCR3 [2] = experiment: Single SABR-II co-incubation, NFAT-GFP Jurkat; format: cell-based, mouse; details: TCR 3, Fig 5C
Text: as §1
(§2) For SABR library screens, 3 × 10^6 NFAT–GFP Jurkat cells expressing the SABR library were labeled with CellTrace Violet (BioLegend) according to the manufacturer’s protocol before incubation with 3 × 10^6 Jurkat cells expressing the TCR of interest. These mixtures were incubated in a six-well plate for 16–20 h. Cells were stained with anti-CD69-APC-Cy7 where indicated (BioLegend) and the top 1–2% of GFP^+CD69^+ cells were sorted for genomic DNA extraction, indexing and sequencing (see below). Multiplexed assays were scaled on a per-TCR basis (for example 3 × 10^6 for each of three TCRs against 9 × 10^6 library cells). For single SABR assays, unless otherwise defined, 5 × 10^5 SABR expressing NFAT–GFP Jurkat cells (or 5KC cells) were labeled with CellTrace Violet (BioLegend) according to the manufacturer’s protocol before incubation with 5 × 10^5 TCR-expressing Jurkat cells (or 5KC cells) in a round-bottom 96-well plate for 16–20 h. Cells were stained with anti-CD69-APC-Cy7 when indicated and acquired on the Attune NxT flow cytometer (Thermo Fisher Scientific). All flow analysis was performed using FlowJo (BD). For Daudi cell co-culture, 1 × 10^6 Jurkat cells expressing the TCR of interest were incubated with 1 × 10^6 Daudi cells expressing a SABR of interest for 3 days. On day 3, cells were labeled with anti-RT1B-PE and anti-Fas-APC-Cy7 before being acquired on the Attune NxT flow cytometer.

Jurkat cells, No TCR = experiment: Single SABR-II co-incubation, background without TCR; format: cell-based, human; details: No TCR, Fig 5C
Text: (§3) We performed systematic screening of the cloned TCRs against the I-Ag7 SABR-II library. Several TCRs along with a positive control (such as BDC2.5 or 4-8Ins) were screened individually against the library for each sort (Extended Data Fig. 6a and Supplementary Table 4). High- and low-confidence ES zones for each screened TCR were defined by the ES values of the control TCR’s cognate epitopes. For all putative cognate epitopes, single SABR-IIs were constructed, expressed in NFAT–GFP Jurkat cells and used for co-incubation with the corresponding TCRs. Co-incubation assays that yielded a GFP signal higher than that obtained in assays with no TCR were determined to be positive and the epitopes deemed true cognate ligands (Extended Data Fig. 6b,c). Using this strategy, we obtained epitopes in the high-confidence zone for eight TCRs (Fig. 3a and Extended Data Fig. 6b,d). Among numerous altered peptide ligands (APLs), these TCRs recognized the physiological InsC-ChgA HIP ([…] and analogs, recognized by TCR5, TCR6B, TCR9 and TCR34), InsC-Iapp HIP ([…] and analogs, recognized by TCR4 and TCR15) and InsB9:23 ([…] and analogs recognized by TCR24 and TCR37). These cognate high-confidence hits were validated using single SABR-II co-incubation assays (Fig. 3b and Extended Data Fig. 7a). Further validations using in vitro mouse interleukin-2 (mIL-2) secretion by TCR-expressing 5KC reporter cells[13] or CD25 expression by TCR-expressing splenic CD4^+ T cells upon stimulation with the cognate epitope were performed (Extended Data Fig. 7b,c). Furthermore, low-confidence hits were called for ten TCRs and tested in co-incubation assays.
as §2

TCR4 = experiment: Single SABR-II co-incubation, NFAT-GFP Jurkat; format: cell-based, mouse; details: TCR 4, Fig 5C
Text: as §3, §2

[3] = HIP library, TCR 3, TCR_Mean of 3 replicates minus PREDICTED_TCR (slope 0.926662, intercept 2.88051e-5)
[4] = I-Ag7 HIP library, one biological experiment

Row | Sequence | Enrichment score (TCR3 [1]; [3]) | %GFP+CD69+ cells of SABR-NFAT-GFP-Jurkat cells (TCR3 [2]; technical replicate 1) [%] | %GFP+CD69+ cells of SABR-NFAT-GFP-Jurkat cells (TCR3 [2]; technical replicate 2) [%] | %GFP+CD69+ cells of SABR-NFAT-GFP-Jurkat cells (Jurkat cells, No TCR; technical replicate 1) [%] | %GFP+CD69+ cells of SABR-NFAT-GFP-Jurkat cells (Jurkat cells, No TCR; technical replicate 2) [%] | %GFP+CD69+ cells of SABR-NFAT-GFP-Jurkat cells (TCR4; technical replicate 1) [%] | %GFP+CD69+ cells of SABR-NFAT-GFP-Jurkat cells (TCR4; technical replicate 2) [%] | Enrichment score (TCR3 [1]; [4])
1 | DPQVEQLELGGSKDSDKGQQDGFE | 0.001805 | – | – | – | – | – | – | –
2 | EDPQVEQLELGGAEDQELESLSAI | 0.001322 | – | – | – | – | – | – | –
3 | EDPQVEQLELGGKADEFPDFYDSE | 0.001943 | – | – | – | – | – | – | –
4 | EQLELGGHIEDSGE [14-mer hybrid insulin peptide spanning the fusion junction, TCR3 hit] | – | 29.1 | 28.9 | 14.1 | 13.9 | 13.2 | 14.3 | –
5 | EQLELGGKADEFPD [14-mer hybrid insulin peptide spanning the fusion junction, TCR3 hit] | – | 38.6 | 37.2 | 11.2 | 12.4 | 11.4 | 11.5 | –
6 | EVEDEVEDPQVAQLELGGGPGAGD [theoretical HIP of the I-Ag7 HIP library] | – | – | – | – | – | – | – | 2.439e-5
7 | EVEDEVEDPQVEQLELGGSPGDLQ [theoretical HIP of the I-Ag7 HIP library] | – | – | – | – | – | – | – | 0.0001951
8 | EVEDFVKQHLCGPHLVEALYLVCG [theoretical HIP of the I-Ag7 HIP library] | – | – | – | – | – | – | – | -1.381e-6
9 | EVEDFVKQHLCGSHLVEALYLVCG [theoretical HIP of the I-Ag7 HIP library] | – | – | – | – | – | – | – | -0.0001794
10 | EVEDGIVDQCCTSICSLYQLENYC [theoretical HIP of the I-Ag7 HIP library] | – | – | – | – | – | – | – | 1.206e-5
11 | EVEDPQVEQLELNAARDPNRESLD | 0.002309 | – | – | – | – | – | – | –
12 | QLELGGSKDSDKGQ [14-mer hybrid insulin peptide spanning the fusion junction, TCR3 hit] | – | 10.5 | 9.28 | 9.03 | 10.7 | 9.32 | 9.4 | –
13 | QVEQLELNAARDPN [14-mer hybrid insulin peptide spanning the fusion junction, TCR3 hit] | – | 66.4 | 66.1 | 2.19 | 2.2 | 2.09 | 2.09 | –
14 | VEDPQVEQLELGSGKEVKGEEKGE | 0.002292 | – | – | – | – | – | – | –
15 | VEQLELGAKQEEKE [14-mer hybrid insulin peptide spanning the fusion junction, TCR3 hit] | – | 80.7 | 80.6 | 1.47 | 1.55 | 1.47 | 1.36 | –
16 | VEQLELGSGKEVKG [14-mer hybrid insulin peptide spanning the fusion junction, TCR3 hit] | – | 78.8 | 77.6 | 3.79 | 4 | 4.13 | 4.17 | –
